Measurements: US20150352075A1, “Treatment of Alzheimer's and Cognitive Impairment With Andrographolides” (INNOBIOSCIENCE, LLC, priority 2013, published 2015)

B1: Wnt-3a: conditioned medium of Wnt3a ligand, the canonical Wnt ligand (protein, UniProt P56704 19-352, looked up)
Protein Wnt-3a: SYPIWWSLAVGPQYSSLGSQPILCASIPGLVPKQLRFCRNYVEIMPSVAEGIKIGIQECQHQFRGRRWNCTTVHDSLAIFGPVLDKATRESAFVHAIASAGVAFAVTRSCAEGTAAICGCSSRHQGSPGKGWKWGGCSEDIEFGGMVSREFADARENRPDARSAMNRHNNEAGRQAIASHMHLKCKCHGLSGSCEVKTCWWSQPDFRAIGDFLKDKYDSASEMVVEKHRESRGWVETLRPRYTYFKVPTERDLVYYEASPNFCEPNPETGSFGTRDRTCNVSSHGIDGCDLLCCGRGHNARAERRREKCRCVFHWCCYVSCQECTRVYDVHTCK
modifications: conditioned medium

What was measured:
[1] = tested on: Wnt target genes in cultured hippocampal neurons; experiment: PCR array of Wnt target genes in hippocampal neurons; type: cell-based, rat
Description: Primary culture of rat hippocampal neurons. […] PCR-ARRAY. RNA from hippocampal neurons was extracted using Trizol. Quantification and purity of RNA preparations were checked by absorbance using Nanodrop ND-2000. Only preparations with a 260/280 nm ratio ≧1.8, a 260/230 nm ratio ≧1.7 and no sign of RNA degradations, verified by agarose gel electrophoresis with Gel Red™ were used. Genomic DNA was degraded. Using RT2First-Strand cDNA Synthesis kit (SuperArray), 1 ng total RNA was reverse transcribed and then real-time PCR was performed by adding cDNA directly to PCR Master Mix, containing SYBR Green and ROX. The mixtures were then aliquoted into a 96-well PCR array plates, which profiles the expression of 84 Wnt target genes from rat. The PCR was run on ABI StepOnePlus, with 1 cycle of 10 min at 95° C. followed by 40 cycles of 15s at 95° C. and 1 min at 60° C. […] Treatment of neuronal cultures. Primary hippocampal cultures of neurons 14 DIV were washed twice in neurobasal medium and maintained for 1 hour. Next ANDRO (10 μM) and 6-BIO (10 μM) were added to different time periods.

HEK293T cells = experiment: TOPflash/FOPflash luciferase reporter assay; type: cell-based
Description: 150,000 HEK293T cells were seeded in triplicate per condition and kept for 24 hours at 37° C. with 5% CO2. The cultures were transfected with TOPflash or FOPflash (400 ng), which are firefly-luciferase reporter DNA constructs (Milipore), using LipofectAMINE 2000 (Invitrogen). To control for transfection pRL-TK (10 ng) was included in all transfections. […] Values were normalized by the renilla value from the same well. To statistically compare treatments ANOVA was used.

[2] = tested on: CA3-CA1 connections in hippocampal slices; experiment: Electrophysiology (fEPSP, PPF, LTP, LTD) in Wt hippocampal slices; type: cell-based, mice; conditions: hippocampal slices, LFS
Description: Slices were transferred to an experimental chamber (2 ml), superfused (3 ml/min, at 20-22° C.) with gassed ACSF and visualized by trans-illumination with a binocular microscope (MSZ-10, Nikon, Melville, N.Y.). […] The stimulation was in the Stratum Radiatum within 100-200 μm from the recording site. The paired pulse facilitation index was calculated by ((R2−R1)/R1), where R1 and R2 were the peak amplitudes of the first and second fEPSP respectively. To generate LTP we used Theta Burst Stimulation (TBS) consisting of 5 trains of stimulus with an inter-train interval of 20 s. Each train consisted of 10 bursts at 5 Hz and each burst having 4 pulses at 100 Hz. To generate LTD we used Low Frequency Stimulation (LFS) consisting in 900 paired pulses at 1 Hz. Recordings were filtered at 2.0-3.0 kHz, sampled at 4.0 kHz using an A/D converter, and stored with pClamp 10 (Molecular Devices). Evoked postsynaptic responses were analyzed off-line, using an analysis software (pClampfit, Molecular Devices), which allowed visual detection of events, computing only those events that exceeded and arbitrary threshold.

[3] = tested on: Wnt/β-catenin pathway in hippocampal slices; experiment: Wnt pathway mechanism in hippocampal slices (sFRP, Dkk-1, Dvl-3 mobility shift, time course); type: cell-based, mice; conditions: for time at which total levels of β-catenin increased: slices from 2 month-old wild-type mice, 5 μM ANDRO, Wnt3a conditioned medium or 10 μM 6-B10
Description: Slice preparation. […] Transverse slices (250-300 μm) from the dorsal hippocampus were cut under oxygen-saturated cold artificial cerebrospinal fluid using a Vibroslice microtome (VSL, World Precision Instruments, Inc WPI, Sarasota, Fla.). After obtained, slices were incubated in ACSF for at least than one hour at room temperature, in order to stabilize activity. In every moment during dissection, slicing and experimentation slices were oxygenated with 95% oxygen-5% carbon dioxide.
Briefly, tissues were homogenized in RIPA buffer (10 mM Tris-Cl, pH 7.4, EDTA 5 mM, 1% NP-40, 1% sodium deoxycholate, and 1% SDS) supplemented with a protease inhibitor mixture (1 mM PMSF, 2 μg/mL aprotinin, 1 μg/mL pepstatin and 10 μg/mL benzamidine) and phosphatase inhibitors (25 mMNaF, 100 mM Na3VO4, 1 mM EDTA and 30 μM Na4P207) using a Potter homogenizator and then passed sequentially through different caliber syringes. […] Protein concentration was determined using the BCA Protein Assay Kit (Pierce). Samples were resolved by […] 10% SDS-PAGE and transferred to a PVDF membrane. The reactions were followed by incubation with anti-mouse, anti-goat or anti-rabbit IgG peroxidase conjugated (Pierce, Rockford, Ill.) and developed using an ECL kit (Western Lightning Plus ECL, PerkinElmer).

Molecule | Cdh-1 gene expression [1] | number of Wnt target genes specifically modulated ([1]; 9 h, of the 86 genes analyzed) [genes] | number of modulated Wnt target genes shared by both treatments ([1]; 9 h, of the 86 genes analyzed) | FOPflash reporter activity (HEK293T cells; 10 μM, 24 h) | TOPflash reporter activity (HEK293T cells; 10 μM, 24 h) | increase of luciferase reporter over control (HEK293T cells; HEK293T, TOPflash) [fold] | induction of LTD [2] | speed of increase in GSK3β pSer-9 and decrease in pTyr-216 ([3]; compared to Wnt-3a treatment) | time at which total levels of β-catenin increased [3] [min] | inhibition of β-catenin accumulation by Wnt antagonists sFRP and Dkk-1 ([3]; antagonist 15 min prior, 5 μM ANDRO or Wnt3a conditioned medium for 1 h)
O=C1Nc2cc(Br)ccc2/C1=C1/Nc2ccccc2/C1=N\O [6-B10, 6-bromoindirubin-3′-oxime, reference compound] | does not by 6-B10 | 4 | 4 | not in the FOPflash | significant increase in the TOPflash | ~6 | complete inhibition of the induction of LTD | faster | 15 | –
B1 | – | – | – | – | – | – | – | – | 45 | inhibit the accumulation of β-catenin in the presence of Wnt3a
